# How the values were obtained:
# Format in all cases: biochemical
# [1] = test system: rat liver mitochondria (RLM); experiment: Mitochondrial transmembrane electric potential (ΔΨ) of RLM, safranine fluorescence
# Protocol: (§1) In an embodiment, and as an example, AntiOxCINs and MitoQ toxicity effects on the mitochondrial bioenergetics, namely on RLM ΔΨ and mitochondrial respiration parameters, were measured. The […] represents the main component of the electrochemical gradient generated by mitochondrial respiration and accounts for more than 90% of the total available energy. For mitochondrial respiration assays, glutamate/malate (for complex I) and succinate (for complex II) were used as substrates. In addition, the mitochondrial oxidative phosphorylation coupling index, known as respiratory control ratio (RCR, state 3/state 4 respiration) and ADP/O index (the coupling between ATP synthesis and oxygen consumption) were also calculated. AntiOxCINs and MitoQ were tested at antioxidant-relevant concentrations, with 10 μM being the highest concentration.
# (§2) In an embodiment, the evaluation of AntiOxCINs functional mitochondrial toxicity profile was performed in rat liver mitochondria (RLM). […] The protein concentration was determined by the biuret assay using BSA as a standard.
# Then, 1 μM FCCP was added at the end of all experiments to depolarize mitochondria. ΔΨ was calculated using a calibration curve obtained when RLM were incubated in a K^+-free reaction medium containing 200 mM sucrose, 1 mM NaH2PO4, 10 mM Tris (pH 7.4) and 10 μM EGTA, supplemented with 0.4 μg valinomicin. […] “Repolarization” corresponded to the recovery of membrane potential after the complete phosphorylation of ADP added. Lag phase reflected the time required to phosphorylate the added ADP. […] Data are means±SEM of five independent experiments.
# [2] = GO radical scavenging activity (TAC assay); settings: ethanol, absorbance 428 nm
# Description: In an embodiment, the AntiOxCINs antioxidant ranking activity hierarchy was established by in vitro non-cell methods. The selected total antioxidant capacity (TAC) assays (DPPH, ABTS and GO) involved the spectrophotometric measurement of the radical absorbance decrease as a result of an in situ radical deactivation by an antioxidant. Compounds with higher antioxidant activity display lower IC50 values. […] This decrease was attenuated/ameliorated by the increment of the spacer length and/or the introduction of additional hydroxyl group in the aromatic ring.
# The radical scavenging activity of AntiOxCINs was evaluated by means of total antioxidant capacity assays based on DPPH., ABTS.^+ and GO. radicals. All these methods involved the spectrophotometric measurement of the absorbance decrease resulting from radical (DPPH., ABTS.^+ or GO.) deactivation with an antioxidant. The results were expressed in IC50, which is defined as the minimum antioxidant concentration necessary to reduce the amount of radical by 50%. Antioxidant assays were performed in a multiplate reader (Powerwave XS Microplate Reader) of Bio-Tech instruments.
# In an embodiment, the GO′ scavenging activity was evaluated as follows: solutions of test compounds with concentrations from 5 μM to 75 μM were prepared in ethanol. An ethanolic solution of 5 mM GO′ was prepared and diluted to reach the absorbance of 1.00±0.02 at 428 nm. The addition (20 μL) in triplicate of compound solution to GO. solution (180 μL) was followed by absorbance measurement at 428 nm over 30 minutes, in the dark, at room temperature. […] Dose-response curves were established for the determination of IC50 values. Data are means±SEM of three independent experiments.
# [3] = test system: rat liver mitochondria (RLM); experiment: Mitochondrial respiration of isolated RLM (Clark-type oxygen electrode); settings: for effect on state 3 respiration: all tested concentrations (2.5-10 μM), FIG. 6B-H
# Protocol: as §1, §2
# In an embodiment, the evaluation of AntiOxCINs effect on mitochondrial respiration was performed as follows: the respiration of isolated RLM was evaluated polarographically with a Clark-type oxygen electrode, connected to a suitable recorder in a 1 mL thermostated water-jacketed chamber with magnetic stirring, at 37° C.^1. […] Increasing concentrations of AntiOxCINs (2.5-10 μM) were added to the reaction medium containing respiratory substrates glutamate/malate (10 mM and 5 mM respectively) or succinate (5 mM) and RLM (1 mg) and allowed to incubate for a 5 min period prior to the assay. State 2 was considered as the respiration during the 5 min incubation time with AntiOxCINs. […] State 4 was determined after ADP phosphorylation finished. Subsequent addition of oligomycin (2 μg/ml) inhibited ATP-synthase and originated the oligomycin-inhibition respiration state. Finally, 1 μM FCCP was added to induce uncoupled respiration.
SMILES,"ADP-induced depolarization (ΔΨ in - mV) ([1]; glutamate/malate, 2.5 μM)","Lag Phase ([1]; glutamate/malate, 2.5 μM)","Maximum potential (ΔΨ in - mV) ([1]; glutamate/malate, 2.5 μM)","Repolarization Potential (ΔΨ in - mV) ([1]; glutamate/malate, 2.5 μM)","ADP-induced depolarization (ΔΨ in - mV) ([1]; glutamate/malate, 5 μM)","Lag Phase ([1]; glutamate/malate, 5 μM)","Maximum potential (ΔΨ in - mV) ([1]; glutamate/malate, 5 μM)","Repolarization Potential (ΔΨ in - mV) ([1]; glutamate/malate, 5 μM)","ADP-induced depolarization (ΔΨ in - mV) ([1]; glutamate/malate, 10 μM)","Lag Phase ([1]; glutamate/malate, 10 μM)","Maximum potential (ΔΨ in - mV) ([1]; glutamate/malate, 10 μM)","Repolarization Potential (ΔΨ in - mV) ([1]; glutamate/malate, 10 μM)","ADP-induced depolarization (ΔΨ in - mV) ([1]; succinate, 2.5 μM)","Lag Phase ([1]; succinate, 2.5 μM)","Maximum potential (ΔΨ in - mV) ([1]; succinate, 2.5 μM)","Repolarization Potential (ΔΨ in - mV) ([1]; succinate, 2.5 μM)","ADP-induced depolarization (ΔΨ in - mV) ([1]; succinate, 5 μM)","Lag Phase ([1]; succinate, 5 μM)","Maximum potential (ΔΨ in - mV) ([1]; succinate, 5 μM)",IC50 [2],further results
"CS(=O)(=O)[O-].O=C(/C=C/c1ccc(O)c(O)c1)NCCCCCC[P+](c1ccccc1)(c1ccccc1)c1ccccc1 [AntiOxCIN2, (E)-(6-(3-(3,4-dihydroxyphenyl)prop-2-enamido)hexyl)triphenylphosphonium methanesulfonate]",186.2 ± 8.9 mV,81.2 ± 7.2 s,208.4 ± 10.1 mV,205.1 ± 9.0 mV,199.2 ± 13.3 mV,79.5 ± 7.0 s,214.8 ± 11.7 mV,214.0 ± 12.5 mV,193.3 ± 9.1 mV,88.7 ± 25.1 s,209.8 ± 9.4 mV,202.0 ± 8.0 mV,169.3 ± 4.0 mV,101.2 ± 7.5 s,190.5 ± 5.9 mV,191.5 ± 7.5 mV,174.9 ± 5.5 mV,64.6 ± 19.4 s,189.7 ± 8.0 mV,4.1 µM,"Repolarization Potential (ΔΨ in - mV) ([1]; succinate, 5 μM): 189.5 ± 9.0 mV; ADP-induced depolarization (ΔΨ in - mV) ([1]; succinate, 10 μM): 178.7 ± 6.3 mV; Lag Phase ([1]; succinate, 10 μM): 46.2 ± 12.4 s; Maximum potential (ΔΨ in - mV) ([1]; succinate, 10 μM): 190.0 ± 6.3 mV; Repolarization Potential (ΔΨ in - mV) ([1]; succinate, 10 μM): 186.6 ± 7.1 mV; effect on state 3 respiration [3]: decrease; ADP/O ([3]; glutamate/malate, 2.5 μM): 2.4 ± 0.04; RCR (respiratory control ratio, state 3/state 4) ([3]; glutamate/malate, 2.5 μM): 5.2 ± 1.0; ADP/O ([3]; glutamate/malate, 5 μM): 2.2 ± 0.1; RCR (respiratory control ratio, state 3/state 4) ([3]; glutamate/malate, 5 μM): 3.9 ± 0.6; ADP/O ([3]; glutamate/malate, 10 μM): 2.2 ± 0.1; RCR (respiratory control ratio, state 3/state 4) ([3]; glutamate/malate, 10 μM): 3.4 ± 0.3; ADP/O ([3]; succinate, 2.5 μM): 1.4 ± 0.1; RCR (respiratory control ratio, state 3/state 4) ([3]; succinate, 2.5 μM): 3.3 ± 0.2; ADP/O ([3]; succinate, 5 μM): 1.3 ± 0.1; RCR (respiratory control ratio, state 3/state 4) ([3]; succinate, 5 μM): 3.3 ± 0.2; ADP/O ([3]; succinate, 10 μM): 1.1 ± 0.1; RCR (respiratory control ratio, state 3/state 4) ([3]; succinate, 10 μM): 2.1 ± 0.2"
"CS(=O)(=O)[O-].O=C(/C=C/c1cc(O)c(O)c(O)c1)NCCCCCC[P+](c1ccccc1)(c1ccccc1)c1ccccc1 [AntiOxCIN4, (E)-(6-(3-(3,4,5-trihydroxyphenyl)prop-2-enamido)hexyl)triphenylphosphonium methanesulfonate]",188.5 ± 9.6 mV,84.7 ± 7.0 s,214.6 ± 10.9 mV,211.8 ± 10.1 mV,193.8 ± 11.8 mV,81.7 ± 6.7 s,216.4 ± 13.1 mV,216.1 ± 12.7 mV,192.7 ± 14.4 mV,65.7 ± 15.1 s,216.8 ± 15.7 mV,207.7 ± 15.6 mV,171.2 ± 3.7 mV,95.6 ± 7.5 s,192.0 ± 4.0 mV,192.7 ± 5.4 mV,176.2 ± 5.0 mV,97.8 ± 18.8 s,197.6 ± 6.1 mV,3.1 µM,"Repolarization Potential (ΔΨ in - mV) ([1]; succinate, 5 μM): 195.4 ± 8.2 mV; ADP-induced depolarization (ΔΨ in - mV) ([1]; succinate, 10 μM): 170.3 ± 5.2 mV; Lag Phase ([1]; succinate, 10 μM): 101.4 ± 23.75 s; Maximum potential (ΔΨ in - mV) ([1]; succinate, 10 μM): 187.4 ± 8.5 mV; Repolarization Potential (ΔΨ in - mV) ([1]; succinate, 10 μM): 183.5 ± 10.5 mV; effect on state 3 respiration [3]: decrease; ADP/O ([3]; glutamate/malate, 2.5 μM): 2.4 ± 0.1; RCR (respiratory control ratio, state 3/state 4) ([3]; glutamate/malate, 2.5 μM): 5.3 ± 0.8; ADP/O ([3]; glutamate/malate, 5 μM): 2.2 ± 0.1; RCR (respiratory control ratio, state 3/state 4) ([3]; glutamate/malate, 5 μM): 4.3 ± 0.7; ADP/O ([3]; glutamate/malate, 10 μM): 2.2 ± 0.1; RCR (respiratory control ratio, state 3/state 4) ([3]; glutamate/malate, 10 μM): 3.5 ± 0.5; ADP/O ([3]; succinate, 2.5 μM): 1.4 ± 0.1; RCR (respiratory control ratio, state 3/state 4) ([3]; succinate, 2.5 μM): 3.4 ± 0.3; ADP/O ([3]; succinate, 5 μM): 1.3 ± 0.1; RCR (respiratory control ratio, state 3/state 4) ([3]; succinate, 5 μM): 3.0 ± 0.34; ADP/O ([3]; succinate, 10 μM): 1.3 ± 0.02; RCR (respiratory control ratio, state 3/state 4) ([3]; succinate, 10 μM): 2.7 ± 0.4"
"CS(=O)(=O)[O-].O=C(/C=C/c1ccc(O)c(O)c1)NCCCCCCCC[P+](c1ccccc1)(c1ccccc1)c1ccccc1 [AntiOxCIN3, (E)-(8-(3-(3,4-dihydroxyphenyl)acrylamido)octyl)triphenylphosphoniummethanesulfonate]",199.4 ± 7.4 mV,65.8 ± 6.6 s,238.0 ± 9.8 mV,234.8 ± 10.3 mV,200.7 ± 5.5 mV,68.2 ± 9.6 s,238.9 ± 8.6 mV,235.0 ± 8.4 mV,302.5 ± 6.3 mV,73.8 ± 12.1 s,238.0 ± 6.7 mV,231.5 ± 7.2 mV,171.5 ± 7.3 mV,84.6 ± 16.7 s,191.2 ± 9.1 mV,186.7 ± 9.3 mV,174.5 ± 7.7 mV,92.0 ± 10.3 s,193.3 ± 7.6 mV,2.8 µM,"initial slight hyperpolarization ([1]; 2.5 μM): 10 mV; Repolarization Potential (ΔΨ in - mV) ([1]; succinate, 5 μM): 190.4 ± 8.3 mV; ADP-induced depolarization (ΔΨ in - mV) ([1]; succinate, 10 μM): 172.2 ± 7.5 mV; Lag Phase ([1]; succinate, 10 μM): 79.8 ± 17.6 s; Maximum potential (ΔΨ in - mV) ([1]; succinate, 10 μM): 189.7 ± 7.8 mV; Repolarization Potential (ΔΨ in - mV) ([1]; succinate, 10 μM): 184.2 ± 7.6 mV; effect on state 3 respiration [3]: increase; ADP/O ([3]; glutamate/malate, 2.5 μM): 2.4 ± 0.2; RCR (respiratory control ratio, state 3/state 4) ([3]; glutamate/malate, 2.5 μM): 3.8 ± 0.5; ADP/O ([3]; glutamate/malate, 5 μM): 2.7 ± 0.2; RCR (respiratory control ratio, state 3/state 4) ([3]; glutamate/malate, 5 μM): 3.5 ± 0.5; ADP/O ([3]; glutamate/malate, 10 μM): 2.4 ± 0.1; RCR (respiratory control ratio, state 3/state 4) ([3]; glutamate/malate, 10 μM): 3.3 ± 0.3; ADP/O ([3]; succinate, 2.5 μM): 1.6 ± 0.1; RCR (respiratory control ratio, state 3/state 4) ([3]; succinate, 2.5 μM): 4.1 ± 0.5; ADP/O ([3]; succinate, 5 μM): 1.8 ± 0.3; RCR (respiratory control ratio, state 3/state 4) ([3]; succinate, 5 μM): 4.7 ± 0.7; ADP/O ([3]; succinate, 10 μM): 1.6 ± 0.1; RCR (respiratory control ratio, state 3/state 4) ([3]; succinate, 10 μM): 3.9 ± 0.6"
"O=C(O)/C=C/c1ccc(O)c(O)c1 [Caffeic acid, caffeic acid, reference compound]",,,,,,,,,,,,,,,,,,,,3.4 µM,toxicity toward the mitochondrial bioenergetic apparatus ([3]; RLM): low toxicity

# From patent US10913757B2, “Hydroxycinnamic derivatives, methods and uses thereof” (UNIVERSIDADE DO PORTO, priority 2016, dated 2021)
